Experimental data as given in paper PMC9516332 (Frontiers in Oncology, 2022).
pIC50: −log10 of the molar value. Read-outs that look alike come from different tables or passages of the source.

System: 134 cancer cell lines
Assay: Cell viability assay (ATPlite, 72 hours), IC50 on cancer cell line panel

With `FC(F)(F)c1ccc(CNc2ccc(Cc3c[nH]c4ncc(Cl)cc34)cn2)cn1` [pexidartinib] as the compound, how does the pIC50 (Homo sapiens, MOLM-13, read-out: IC50 in cell proliferation assay, MOLM-13 cell line (FLT3 ITD)) read?
The pIC50 was 6.72.

What about the pIC50 (Homo sapiens, MOLT-4, read-out: IC50 in cell proliferation assay, MOLT-4 cell line) of the same compound?
The pIC50 was < 4.50.

And the pIC50 (Homo sapiens, MV4-11, read-out: IC50 in cell proliferation assay, MV4-11 cell line (FLT3 ITD))?
The pIC50 was 6.60.

What about the pIC50 (Homo sapiens, MeWo, read-out: IC50 in cell proliferation assay, MeWo cell line) of the same compound?
Its pIC50 is < 4.50.

What about the pIC50 (Homo sapiens, NCCIT, read-out: IC50 in cell proliferation assay, NCC-IT cell line) of the same compound?
The pIC50 was < 4.50.

And the pIC50 (Homo sapiens, NCI-H82, read-out: IC50 in cell proliferation assay, cell line NCI-H82)?
Its pIC50 is < 4.50.

What about the pIC50 (Homo sapiens, NCI-H460, read-out: IC50 in cell proliferation assay, NCI-H460 cell line) of the same compound?
Its pIC50 is 5.48.

What about the pIC50 (Homo sapiens, NCI-H661, read-out: IC50 in cell proliferation assay, NCI-H661 cell line) of the same compound?
Its pIC50 is < 4.50.

And the pIC50 (Homo sapiens, NCI-H716, read-out: IC50 in cell proliferation assay, cell line NCI-H716 (FGFR2-COL14A1))?
Its pIC50 is 4.77.

And the pIC50 (Homo sapiens, NCI-H1650, read-out: IC50 in cell proliferation assay, NCI-H1650 cell line (EGFR exon19del))?
The pIC50 was < 4.50.

What about the pIC50 (Homo sapiens, NCI-H1975, read-out: IC50 in cell proliferation assay, NCI-H1975 cell line (EGFR p.L858R + p.T790M)) of the same compound?
Its pIC50 is < 4.50.

And the pIC50 (Homo sapiens, NCI-H2228, read-out: IC50 in cell proliferation assay, NCI-H2228 cell line (EML4-ALK))?
Its pIC50 is < 4.50.

What about the pIC50 (Homo sapiens, OVCAR-3, read-out: IC50 in cell proliferation assay, cell line OVCAR-3) of the same compound?
The pIC50 was < 4.50.

And the pIC50 (Homo sapiens, PFSK-1, read-out: IC50 in cell proliferation assay, cell line PFSK-1)?
The pIC50 was < 4.50.

And the pIC50 (Homo sapiens, RL95-2, read-out: IC50 in cell proliferation assay, cell line RL95-2 (EGFR p.A289V))?
The pIC50 was < 4.50.

What about the pIC50 (Homo sapiens, RPMI-7951, read-out: IC50 in cell proliferation assay, cell line RPMI-7951 (BRAF p.V600E)) of the same compound?
Its pIC50 is 4.58.

What about the pIC50 (Homo sapiens, RS4-11, read-out: IC50 in cell proliferation assay, cell line RS4;11) of the same compound?
The pIC50 was < 4.50.

And the pIC50 (Homo sapiens, Rec1, read-out: IC50 in cell proliferation assay, cell line REC-1)?
Its pIC50 is 4.80.

And the pIC50 (Homo sapiens, SHP77, read-out: IC50 in cell proliferation assay, cell line SHP-77)?
The pIC50 was < 4.50.

What about the pIC50 (Homo sapiens, SK-BR-3, read-out: IC50 in cell proliferation assay, cell line SK-BR-3 (ERBB2 amplification)) of the same compound?
The pIC50 was < 4.50.

What about the pIC50 (Homo sapiens, SK-N-AS, read-out: IC50 in cell proliferation assay, cell line SK-N-AS) of the same compound?
The pIC50 was < 4.50.

And the pIC50 (Homo sapiens, SK-N-FI, read-out: IC50 in cell proliferation assay, cell line SK-N-FI)?
The pIC50 was < 4.50.

What about the pIC50 (Homo sapiens, SK-N-MC, read-out: IC50 in cell proliferation assay, cell line SK-N-MC) of the same compound?
Its pIC50 is < 4.50.

And the pIC50 (Homo sapiens, SK-N-SH, read-out: IC50 in cell proliferation assay, cell line SK-N-SH (ALK p.F1174L))?
Its pIC50 is < 4.50.

And the pIC50 (Homo sapiens, SNU-5, read-out: IC50 in cell proliferation assay, cell line SNU-5 (MET amplification))?
Its pIC50 is < 4.50.

What about the pIC50 (Homo sapiens, SNU-16, read-out: IC50 in cell proliferation assay, cell line SNU-16 (FGFR2 amplification)) of the same compound?
Its pIC50 is 5.06.

What about the pIC50 (Homo sapiens, SNU-C2B, read-out: IC50 in cell proliferation assay, cell line SNU-C2B (EGFR p.R165Q)) of the same compound?
Its pIC50 is < 4.50.

And the pIC50 (Homo sapiens, SU-DHL-1, read-out: IC50 in cell proliferation assay, cell line SU-DHL-1 (NPM1-ALK))?
Its pIC50 is < 4.50.

What about the pIC50 (Homo sapiens, SU-DHL-6, read-out: IC50 in cell proliferation assay, cell line SU-DHL-6) of the same compound?
The pIC50 was < 4.50.

And the pIC50 (Homo sapiens, SUP-T1, read-out: IC50 in cell proliferation assay, cell line SUP-T1)?
Its pIC50 is < 4.50.

What about the pIC50 (Homo sapiens, SW48, read-out: IC50 in cell proliferation assay, cell line SW48 (EGFR p.G719S)) of the same compound?
Its pIC50 is < 4.50.

What about the pIC50 (Homo sapiens, SW480, read-out: IC50 in cell proliferation assay, cell line SW480) of the same compound?
The pIC50 was < 4.50.

And the pIC50 (Homo sapiens, SW626, read-out: IC50 in cell proliferation assay, cell line SW626)?
Its pIC50 is < 4.50.

What about the pIC50 (Homo sapiens, SW780, read-out: IC50 in cell proliferation assay, cell line SW780 (FGFR3-BAIAP2L1)) of the same compound?
Its pIC50 is 5.30.

And the pIC50 (Homo sapiens, SW837, read-out: IC50 in cell proliferation assay, cell line SW837)?
The pIC50 was < 4.50.

What about the pIC50 (Homo sapiens, SW872, read-out: IC50 in cell proliferation assay, cell line SW872 (BRAF p.V600E)) of the same compound?
The pIC50 was < 4.50.

And the pIC50 (Homo sapiens, SW900, read-out: IC50 in cell proliferation assay, cell line SW900)?
Its pIC50 is < 4.50.

And the pIC50 (Homo sapiens, SW948, read-out: IC50 in cell proliferation assay, cell line SW948)?
Its pIC50 is 4.70.

And the pIC50 (Homo sapiens, SW982, read-out: IC50 in cell proliferation assay, cell line SW982 (BRAF p.V600E))?
Its pIC50 is < 4.50.

What about the pIC50 (Homo sapiens, SW-620, read-out: IC50 in cell proliferation assay, cell line SW620) of the same compound?
The pIC50 was < 4.50.

And the pIC50 (Homo sapiens, T98G, read-out: IC50 in cell proliferation assay, cell line T98G)?
The pIC50 was < 4.50.

What about the pIC50 (Homo sapiens, TCC-SUP, read-out: IC50 in cell proliferation assay, cell line TCCSUP) of the same compound?
Its pIC50 is < 4.50.

And the pIC50 (Homo sapiens, THP-1, read-out: IC50 in cell proliferation assay, cell line THP-1)?
Its pIC50 is < 4.50.

And the pIC50 (Homo sapiens, U2OS, read-out: IC50 in cell proliferation assay, cell line U2OS)?
Its pIC50 is < 4.50.

And the pIC50 (Homo sapiens, U-87 MG, read-out: IC50 in cell proliferation assay, cell line U-87MG ATCC)?
Its pIC50 is < 4.50.

And the pIC50 (Homo sapiens, U-118-MG, read-out: IC50 in cell proliferation assay, cell line U-118MG)?
Its pIC50 is < 4.50.

What about the pIC50 (Homo sapiens, UMUC3, read-out: IC50 in cell proliferation assay, cell line UM-UC-3) of the same compound?
The pIC50 was < 4.50.

What about the pIC50 (Hs766T, read-out: IC50 in cell proliferation assay, Hs 766T cell line) of the same compound?
The pIC50 was < 4.50.

And the pIC50 (L-82, read-out: IC50 in cell proliferation assay, L-82 cell line (NPM1-ALK))?
The pIC50 was < 4.50.

And the pIC50 (Rh30, read-out: IC50 in cell proliferation assay, cell line Rh30)?
Its pIC50 is < 4.50.

What about the pIC50 (read-out: IC50 in cell proliferation assay, 11-18 cell line (EGFR p.L858R)) of the same compound?
Its pIC50 is < 4.50.

And the pIC50 (read-out: IC50 in cell proliferation assay, Hs 852.T cell line)?
Its pIC50 is < 4.50.

What about the pIC50 (read-out: IC50 in cell proliferation assay, JAR cell line) of the same compound?
The pIC50 was < 4.50.

What about the pIC50 (read-out: IC50 in cell proliferation assay, cell line 5637) of the same compound?
Its pIC50 is 4.74.

What about the pIC50 (read-out: IC50 in cell proliferation assay, cell line A-388) of the same compound?
The pIC50 was < 4.50.

And the pIC50 (read-out: IC50 in cell proliferation assay, cell line DB)?
The pIC50 was < 4.50.

And the pIC50 (read-out: IC50 in cell proliferation assay, cell line DEL (NPM1-ALK))?
Its pIC50 is < 4.50.

What about the pIC50 (read-out: IC50 in cell proliferation assay, cell line ES-2 (BRAF p.V600E)) of the same compound?
Its pIC50 is < 4.50.

And the pIC50 (read-out: IC50 in cell proliferation assay, cell line PA-1)?
The pIC50 was 4.76.

What about the pIC50 (read-out: IC50 in cell proliferation assay, cell line PC-3) of the same compound?
The pIC50 was < 4.50.

And the pIC50 (read-out: IC50 in cell proliferation assay, cell line RD)?
Its pIC50 is < 4.50.

And the pIC50 (read-out: IC50 in cell proliferation assay, cell line RKO (BRAF p.V600E))?
The pIC50 was < 4.50.

And the pIC50 (read-out: IC50 in cell proliferation assay, cell line RL)?
The pIC50 was < 4.50.

What about the pIC50 (read-out: IC50 in cell proliferation assay, cell line RT-4 (FGFR3-TACC3)) of the same compound?
The pIC50 was < 4.50.

What about the pIC50 (read-out: IC50 in cell proliferation assay, cell line SR (NPM1-ALK)) of the same compound?
The pIC50 was 4.56.

What about the pIC50 (read-out: IC50 in cell proliferation assay, cell line T24) of the same compound?
The pIC50 was < 4.50.

What about the pIC50 (read-out: IC50 in cell proliferation assay, cell line TT (RET p.C634W)) of the same compound?
The pIC50 was < 4.50.

And the pIC50 (read-out: IC50 in cell proliferation assay, cell line VA-ES-BJ)?
Its pIC50 is < 4.50.
